Entries after “also recorded” stand apart in the source; their conditions may differ. Where a SMILES comes first, the peptide text is derived from it. The star is where a group is joined. Cbz = O=C(OCc1ccccc1)*
Experiments:
PAECs [1] = assay: RT-qPCR gene expression in PAECs; assay type: cell-based, human; settings: for expression of Cluster 15 members (SLC9A3R1, LGALS3): IL-1β-induced expression changes
Method: (§1) The hypoxia chamber (modular incubator chamber) was obtained from Billups-Rothenberg Inc. (Del Mar, Cali) and placed in regulated CO2 incubator at 37° C.
RT-qPCR analysis: Cells were lysis in 1 ml of QiaZol reagent (Qiagen). Total RNA content was extracted using the RNeasy kit (Qiagen), according to the manufacturer's instructions. Total RNA concentration was determined using a BioTek Synergy multimode plate reader. Messenger RNAs were reverse transcribed to generate cDNA using the Multiscript RT kit (Thermo Fisher Scientific). cDNA for specific gene targets was amplified and quantified via fluorescently-labeled Taqman primer sets and Taqman fast advanced master mix (Thermo Fisher Scientific) using an Applied Biosystems QuantStudio 6 Flex Real-Time PCR System.

[2] = system: rats with PAH due to monocrotaline exposure; assay: Monocrotaline PAH rats, glutaminase inhibitors daily i.p. Days 7-21 (Example 2); assay type: in vivo; settings: MCT rats; for Fulton index / right ventricular systolic pressure (RVSP): 10 mg/kg daily i.p. Days 7-21, vs vehicle control
Method: In rats with PAH due to monocrotaline exposure, daily i.p, delivery of CB-839 (10 mg/kg) vs. UPGL00064 (10 mg/kg) vs. vehicle control was performed from Days 7-21 post-monocrotaline exposure. […] Error bars represent ±SEM. […] In rats with PAH due to monocrotaline exposure, daily i.p. delivery of CB-839 (10 mg/kg) vs. UPGL000064 (10 mg/kg) vs. vehicle control was performed from Days 7-21 post-monocrotaline exposure. […] Error bars represent ±SEM.

ISCU = assay: Protein stability assay (proteasome inhibitor MG132) in hypoxic PAECs; assay type: cell-based, human; set-up: dose or concentration left out as unconfirmed; settings: MG132 (2 h)
Method: Protein stability assay: The proteasome inhibitor MG132 (M7449, Sigma) was stored at −20° C. at a concentration of 10 mM diluted in dimethyl sulfoxide (DMSO). PAECs were exposed to MG132 ([…]) vs. DMSO vehicle control for 2 hr under hypoxia, prior to harvesting of cellular lysate for immunoblotting.
(§2) Immunoblot and densitometry: Cells were lysed in RIPA buffer (Sigma) along with 1× protease inhibitor cocktail (Sigma). Protein lysate was resolved by gradient 4%-15% SDS-PAGE gels and transferred onto a 0.2 μm PVDF membrane (Bio-Rad). Membranes were blocked in 5% non-fat milk in 1×PBST buffer for one hour at room temperature. Later, they were incubated in the presence of the primary antibody overnight at 4° C., and then appropriate HRP-conjugated secondary antibodies (Life Technologies). The following antibodies were used: human LGALS8 (AF1305, RnD Systems), mouse/rat Lgals8 ([…], Abcam), pSTAT1 (ab29045, Abcam) and STAT1 (ab47425, Abcam), GSTP1 (ab153949, Abcam), ISCU (14812-1-AP, Pointech), Glutathione (ab19534, Abcam), HIF2A (NB100-122, Novous), α-Tubulin (CP06, Millipore sigma), and ACTB (sc-47778, Santa Cruz). The immunoreactive bands were visualized with the Chemidoc XRS+ system (Bio-Rad) using SuperSignal West Femto chemiluminescent substrates (Thermo Fisher Scientific). The images were later quantified using AlphaEaseFC software (Alpha Innotech).

[3] = system: hypoxia-induced pulmonary hypertension mice; assay: Hypoxia-induced (Group 3) pulmonary hypertension mouse model
Description: Animal models: For the hypoxia-induced pulmonary hypertension mice, male C57BL/6J mice (8 weeks old) (RRID:IMSR_JAX:000664) were purchased from Jackson laboratory and acclimatized for 3-4 days in this facility. Subsequently, mice scheduled for normoxic vs. hypoxic exposure were maintained in either normoxia or a normobaric hypoxia chamber for 1 or 3 weeks (OxyCycler, Biospherix Ltd.), where consistent exposure to 10% oxygen and control for temperature and humidity were possible.
I-BET was dissolved in DMSO at 100× concentration and then made into a working solution in 20% PEG400 and 80% 1×PBS.
Male and female 8 week old Lgals8−/− mice were exposed to hypoxia for 3 weeks. Littermates were used as wildtype (WT) control when comparing with knockout mice.
Immunofluorescent staining: Cryostat sections were cut from OCT-embedded lung tissues at 5-10 μm and mounted on gelatin-coated histological slides. Slides were thawed at room temperature for 10-20 min and rehydrated in wash buffer for 10 minutes. All sections were blocked in 10% donkey scrum and exposed to primary antibody and Alexa 488, 568 and 647-conjugated secondary antibodies (Thermo Fisher Scientific). The following primary antibodies were used: Lgals8 (Ab69631, Abcam; 1/2200), IL-1 (ab9722, Abcam; 1%200), GSTP1 (ab153949, Abcam; 1:100), ISCU (14812-1-AP, Proteintech; 1:100), cleaved caspase 3 (cs-9661, Cell Signaling; 1/400), α-SMA (F3777, Sigma; I/200) and CD31 (ab7388, Abcam: 1/200). Images were obtained using Nikon A1 confocal microscope with 40× objective. Small pulmonary vessels (10 vessels/section) that were not associated with bronchial airways were selected for analysis. Intensity of staining was quantified using ImageJ software (NIH). Degree of pulmonary arteriolar muscularization was assessed in OCT lung sections stained for α-SMA by calculation of the proportion of fully and partially muscularized peripheral (<100 μm diameter) pulmonary arteriole to total peripheral pulmonary arterioles (Bertero T et al. J Clin Invest. 2014, 124, 3514-3528).

PAECs [4] = assay: Cellular apoptosis, caspase-3/7 activity (Caspase-Glo 3/7) in PAECs; assay type: cell-based, human; settings: PAECs
Method: as §1
Cellular apoptosis: Caspase-3/7 activity was quantified using the Caspase-Glo 3/7 Assay (Promega), according to manufacturer's instructions. Caspase-3/7 activity was normalized to total protein content determined by BCA method (Thermo Fisher Scientific).

LGALS8 = assay: Immunoblot and densitometry of LGALS8 isoforms in PAECs; assay type: cell-based, human; settings: IL-1β, listed as I-BET
Method: as §2

PAECs [5] = assay: Flow cytometry detection of mitochondrial superoxide (MitoSOX Red) in PAECs
Method: To assess the effect of I-BET under inflammatory conditions, cells were treated with recombinant human IL-1β (10 ng/ml, Peprotech) at about 70-80% confluency for 48 h in complete media along with vehicle control (DMSO, Sigma-41639), I-BET151 (500 nM), 1-BET762 (500 nM) (Selleckchem-S2780/S7189), as indicated.
For hypoxia exposure, cells were plated in 6-well cell culture plates at 1×10^5 cells/well, grown for 24 hr and placed into a normobaric hypoxia chamber (1%02) for 24 h under specific treatment conditions. Namely, for I-BET and siLGALS8 exposures, cells were either pre-treated with I-BET/vehicle control (VC) or transfected with siLgals8/Scr for 24 h. Then, they were cultured in basal media at 1% 02. After 24 h, caspase activity and mitochondrial superoxide levels were quantified. To detect activation status of pSTAT1/STAT1 by immunoblot, cells were exposed to 8 h of hypoxia.
Flow cytometry detection of mitochondria superoxide: For measuring mitochondrial superoxide, cells were incubated with 5 μM of MitoSOX Red mitochondrial superoxide indicator (Thermo Fisher Scientific) for 10 min in 37° C.

[6] = system: SU5416-hypoxic pulmonary arterial hypertension rats; assay: SU5416-hypoxia pulmonary arterial hypertension rat model, disease-reversal dosing; assay type: in vivo, Sprague-Dawley rats; settings: SU5416-hypoxia rats
Method: Briefly, 10 week old male Sprague-Dawley rats were injected i.p. with 20 mg/kg of SU5416 (Sigma), placed in normobaric hypoxia (10% 02) for 3 weeks and then transferred to normoxia for 2 weeks. During hypoxic exposure, chambers were opened twice a week for cleaning and replenishment of food and water. […] For BRD2889 vs. vehicle control dosing, i.p. injections every 5 days (5 mg/kg) were administered during the final two weeks of normoxia. Oxygen concentrations were continuously monitored with blood gas analyzers.
Measurement of GST activity: The GST activity from lung tissue and PAECs was assayed using GST assay kit (Cayman, MI, USA) per the manufacturer's instructions.
Rodent echocardiography: Echocardiography was performed using a 15-45M Hz transthoracic transducer and a Visual Sonics Vevo 3100 system (Fujifilm). Inhaled isoflurane anesthesia was used at 2% in 100% 02 during positioning and hair removal and then decreased to isoflurane 0.8% during imaging.

[7] = hypoxic mice, I-BET762 30 mg/kg daily oral
[8] = IL-1β 10 ng/ml 48 h, 500 nM vs vehicle control
[9] = IL-1β 10 ng/ml 48 h, 500 nM vs vehicle control, listed as I-BET
[10] = I-BET762 30 mg/kg daily i.p. or BRD2889 5 mg/kg i.p. every 5 days, final 2 weeks
[11] = IL-1β 48 h, I-BET plus rhGal8 24 h (30 nM)

COc1cc2c(cc1-c1c(C)noc1C)ncc1[nH]c(=O)n([C@H](C)c3ccccn3)c12 [I-BET151]
expression of Cluster 15 members (SLC9A3R1, LGALS3) (PAECs [1]): reversed

O=C(Cc1cccc(OC(F)(F)F)c1)Nc1ccc(CCCCc2nnc(NC(=O)Cc3ccccn3)s2)nn1 [CB-839, reference compound]
Fulton index [2]: significantly decreased | right ventricular systolic pressure (RVSP) [2]: significantly decreased

CC(C)C[C@@H](C=O)NC(=O)[C@H](CC(C)C)NC(=O)[C@H](CC(C)C)NC(=O)OCc1ccccc1 [MG132] (Cbz-Leu-Leu-Leu-aldehyde)
GSTP1 and ISCU glutathionylation (ISCU): without affecting GSTP1 or glutathionylation | ISCU protein (ISCU): reversed the hypoxic down-regulation of ISCU; also recorded: reversed the hypoxia-induced reduction of ISCU

O=C(Cc1ccccc1)Nc1nnc(NC2CCN(c3nnc(NC(=O)CC4CC4)s3)CC2)s1 [UPGL00064]
Fulton index, compared with CB-839 ([2]; 10 mg/kg daily i.p. Days 7-21): more robust trend toward lower Fulton index | RVSP, compared with CB-839 ([2]; 10 mg/kg daily i.p. Days 7-21): more robust trend toward lower RVSP | Fulton index [2]: significantly decreased | right ventricular systolic pressure (RVSP) [2]: significantly decreased

CCNC(=O)C[C@@H]1N=C(c2ccc(Cl)cc2)c2cc(OC)ccc2-n2c(C)nnc21 [I-BET762]
cleaved caspase-3 (apoptosis) [3, 7]: reduced downstream apoptosis; also recorded: reversed the 3 week hypoxia-dependent increases | heart rate [3, 7]: without significant effect | pulmonary vascular LGALS8 expression [3, 7]: robustly decreased; also recorded: reversed the 3 week hypoxia-dependent increases | pulmonary vascular muscularization (α-SMA) [3, 7]: reduced; also recorded: reversed the 3 week hypoxia-dependent increases | right ventricular systolic pressure (RVSP) [3, 7]: reduced; also recorded: reversed the 3 week hypoxia-dependent increases | LGALS8 ([3]; normoxic mice, similar dosing, mean±SEM, vehicle control 1±0.02, p=NS): 1.08±0.03 fold change | apoptosis, caspase-3/7 activity (PAECs [4]; [8]): reversed the IL-1β-induced increases | apoptosis, caspase-3/7 activity (PAECs [4]; [9]): reduced the IL-1β-dependent increase | apoptosis, caspase-3/7 activity (PAECs [4]; hypoxia 24 h, I-BET vs vehicle control): reversed the hypoxia-induced increases | LGALS8-L protein (immunoblot densitometry) (LGALS8): followed its mRNA expression; also recorded: reversed the IL-1β-induced increase | LGALS8-M protein (immunoblot densitometry) (LGALS8): no significant difference | mitochondrial superoxide (O2−) levels, MitoSOX Red (PAECs [5]; [8]): reversed the IL-1β-induced increases; also recorded: reversed by I-BET762 | mitochondrial superoxide (O2−) levels, MitoSOX Red (PAECs [5]; [9]): reduced the IL-1β-dependent increase | mitochondrial superoxide (O2−) levels, MitoSOX Red (PAECs [5]; hypoxia 24 h, vs vehicle control): reversed the hypoxia-induced increases | LGALS8 in pulmonary arterioles (immunofluorescence) ([6]; I-BET762 30 mg/kg daily i.p. Days 21-35): decreased | arteriolar muscularization (α-SMA) [6, 10]: reduced | cleaved caspase-3 (CC-3), endothelial apoptosis [6, 10]: reduced downstream apoptosis; also recorded: decreased | right ventricular systolic pressure (RVSP) [6, 10]: reduced | LGALS8-L transcript (PAECs [1]; IL-1β): reversed the alterations | expression of C15 genes LGALS3, LGALS8, DAG1, SLC9A3R1 (extent of reversal) (PAECs [1]; IL-1β): near complete reversal | expression of CD47, ABCC4 and DAG1 (PAECs [1]; IL-1β): all rescued | expression of Cluster 15 (C15) gene galectin-8 (LGALS8) (PAECs [1]; IL-1β): reversed the IL-1β-induced increases | LGALS8-L transcript (PAECs [1]; IL-1β, listed as I-BET): reversed by I-BET | LGALS8-M transcript (PAECs [1]; IL-1β, listed as I-BET): not altered by I-BET | expression of Cluster 15 members (SLC9A3R1, LGALS3) (PAECs [1]): reversed

B1: rhGal8: recombinant human LGALS8 (galectin-8), R&D Systems 1305-GA-050 (protein, UniProt O00214 1-317, looked up)
Galectin-8: MMLSLNNLQNIIYNPVIPFVGTIPDQLDPGTLIVIRGHVPSDADRFQVDLQNGSSMKPRADVAFHFNPRFKRAGCIVCNTLINEKWGREEITYDTPFKREKSFEIVIMVLKDKFQVAVNGKHTLLYGHRIGPEKIDTLGIYGKVNIHSIGFSFSSDLQSTQASSLELTEISRENVPKSGTPQLRLPFAARLNTPMGPGRTVVVKGEVNANAKSFNVDLLAGKSKDIALHLNPRLNIKAFVRNSFLQESWGEEERNITSFPFSPGMYFEMIIYCDVREFKVAVNGVHSLEYKHRFKELSSIDTLEINGDIHLLEVRSW
caspase 3/7 activity (apoptosis): effect of rhGal8 on the I-BET-induced attenuation (PAECs [4]; [11]): reduced the ability of I-BET to decrease; also recorded: reversed the I-BET-induced attenuation | apoptosis (PAECs [4]; rhGal8 alone): alone had no effect | mitochondrial O2−: effect of rhGal8 on the I-BET-induced attenuation (PAECs [5]; [11]): reduced the ability of I-BET to decrease; also recorded: reversed the I-BET-induced attenuation; also recorded: attenuated | mitochondrial superoxide (PAECs [5]; rhGal8 alone): alone had no effect

Source: patent US20250288572A1, “COMPOSITIONS AND METHODS FOR TREATING PULMONARY VASCULAR DISEASE” (UNIVERSITY OF PITTSBURGH-OF THE COMMONWEALTH SYSTEM OF …, priority 2022, published 2025)
